# According to article PMC2725291, “Genetic and Molecular Basis of Individual Differences in Human Umami Taste Perception” (PLoS ONE, 2009):
# Biological target: T1, TAS1R1-372A and TAS1R3-757R (Homo sapiens, UniProt Q7RTX0+Q7RTX1, C757R)
# T1 construct: expressed in transfected cells; host or cells: HEK293
# T1 sequence (Q7RTX1 21-841): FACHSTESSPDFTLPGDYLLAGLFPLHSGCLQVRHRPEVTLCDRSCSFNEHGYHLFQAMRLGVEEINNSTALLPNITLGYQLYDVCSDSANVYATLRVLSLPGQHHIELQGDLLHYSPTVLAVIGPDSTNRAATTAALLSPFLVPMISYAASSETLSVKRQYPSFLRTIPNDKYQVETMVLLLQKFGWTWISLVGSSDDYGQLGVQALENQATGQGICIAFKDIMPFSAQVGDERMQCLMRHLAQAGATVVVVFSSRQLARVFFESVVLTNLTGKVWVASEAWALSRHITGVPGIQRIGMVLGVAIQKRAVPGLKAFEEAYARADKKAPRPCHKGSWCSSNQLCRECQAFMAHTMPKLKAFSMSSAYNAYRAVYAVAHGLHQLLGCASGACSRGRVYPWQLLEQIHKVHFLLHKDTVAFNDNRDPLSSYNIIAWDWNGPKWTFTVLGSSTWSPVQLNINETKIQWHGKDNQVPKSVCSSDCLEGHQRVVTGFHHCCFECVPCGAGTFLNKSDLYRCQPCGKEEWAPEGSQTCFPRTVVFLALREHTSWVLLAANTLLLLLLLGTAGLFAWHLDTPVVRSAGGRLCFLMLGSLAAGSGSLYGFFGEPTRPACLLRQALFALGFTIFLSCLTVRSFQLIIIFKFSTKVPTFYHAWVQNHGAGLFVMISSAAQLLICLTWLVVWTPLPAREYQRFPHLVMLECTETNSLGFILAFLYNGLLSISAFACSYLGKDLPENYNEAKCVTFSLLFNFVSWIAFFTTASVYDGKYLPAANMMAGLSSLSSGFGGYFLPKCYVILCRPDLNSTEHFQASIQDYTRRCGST
# T1 sequence (Q7RTX0 21-852 C757R): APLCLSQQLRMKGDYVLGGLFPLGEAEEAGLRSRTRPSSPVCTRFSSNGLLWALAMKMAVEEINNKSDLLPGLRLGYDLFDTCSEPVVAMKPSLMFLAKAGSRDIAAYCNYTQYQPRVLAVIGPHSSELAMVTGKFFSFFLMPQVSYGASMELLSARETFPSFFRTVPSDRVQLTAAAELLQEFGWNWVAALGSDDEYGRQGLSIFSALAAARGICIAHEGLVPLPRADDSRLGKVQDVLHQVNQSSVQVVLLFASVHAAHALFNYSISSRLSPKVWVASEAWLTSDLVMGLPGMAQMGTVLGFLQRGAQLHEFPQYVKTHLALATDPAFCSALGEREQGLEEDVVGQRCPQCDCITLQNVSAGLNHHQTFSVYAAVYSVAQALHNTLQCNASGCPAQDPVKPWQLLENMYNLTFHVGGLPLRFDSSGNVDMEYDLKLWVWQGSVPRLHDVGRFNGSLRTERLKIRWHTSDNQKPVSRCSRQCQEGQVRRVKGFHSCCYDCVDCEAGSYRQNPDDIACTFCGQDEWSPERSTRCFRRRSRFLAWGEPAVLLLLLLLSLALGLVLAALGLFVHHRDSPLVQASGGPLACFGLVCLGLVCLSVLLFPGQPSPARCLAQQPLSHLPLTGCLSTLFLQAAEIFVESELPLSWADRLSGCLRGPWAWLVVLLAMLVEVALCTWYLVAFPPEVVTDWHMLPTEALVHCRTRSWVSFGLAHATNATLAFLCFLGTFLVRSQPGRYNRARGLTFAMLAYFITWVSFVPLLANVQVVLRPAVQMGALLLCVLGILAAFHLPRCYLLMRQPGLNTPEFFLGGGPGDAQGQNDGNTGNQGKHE
# Test: Ca2+ imaging (bath perfusion) in HEK cells transfected with TAS1R1-372A, TAS1R3-757R and Gα16-i3
# Assay type: cell-based
# Settings: 5∼100 mM
# Description: HEK293 cells were cultured at 37°C under a humidified atmosphere containing 5% CO2 in Dulbecco's modified Eagle's medium supplemented with 10% fetal bovine serum. To obtain reproducible Ca^2+ responses, cells were split every 2 days before cells become confluent. Cells were discarded after 2 months of passages and new cells were prepared from frozen-stock. For calcium imaging experiments, cells were seeded onto a 35 mm recording chamber or poly-D-lysine coated 96-well black-wall, clear-bottom recording plates. After 24 hrs at 37°C, confluent cells (60∼70%) were washed in OptiMEM medium supplemented with GlutaMAX-I (invitrogen) and plasmid DNAs were transiently cotransfected into HEK293 cells using Lipofectamine2000 regent (invitrogen) (2.0 µl per 1.0 µg DNA). TAS1Rs (or their mutants) and Gαl6-i3 were transfected using 1.5 and 1.0 µg of plasmid for 35 mm recording chambers, 0.09 and 0.06 µg of plasmid per well for 96-well plates, respectively. […] Immuno staining and Ca^2+ imaging assays were performed 36∼40 hrs after transfection.
# Two Ca^2+ imaging systems were used. A bath perfusion system was used for kinetics of activation. Transfected cells in 35 mm recording chambers were washed in Hank's balanced salt solution (HBSS) containing 10 mM HEPES, pH 7.4, and loaded with 3.0 µM Fluo-4 acetoxymethyl ester (invitrogen) for 1.0 hr at 37°C. The dye-loaded cells were subjected to Ca^2+ imaging. Taste solutions diluted in HBSS were applied sequentially to the cells for 30 s with a peristaltic pump at a flow rate of 1.5 ml/min, and fluorescence images were obtained using a S Fluor ×20/0.75 objective lens (Nikon) via a cooled-CCD camera (C6790, Hamamatsu Photonics) fitted to a TE300 microscope (Nikon). Acquisition and analysis of these fluorescence images used AquaCosmos software (v. 1.3, Hamamatsu Photonics). A 3 min interval was left between each tastant application to ensure that the cells were not desensitized as a result of the previous application of tastants. Responses were measured from 30 individual responding cells. […] Isoproterenol (ISO, 10 µM) was used as positive control, which stimulates endogenous β-adrenergic receptors, providing that the Gα16-dependent signal transduction cascade was functional.
structure (smiles),measurement,value
"N[C@@H](CCC(=O)O)C(=O)[O-].[Na+] [MSG, monosodium glutamate]",activation (Ca2+ mobilization) of transfected cells,elicited transient intracellular calcium increases
